Measurements taken from patent US12065445B2, “CDK2 inhibitors and methods of using the same” (Cedilla Therapeutics, Inc., priority 2021, dated 2024).
pIC50: −log10 of the molar value.

Key:
[1] = system: Kuramochi cells labeled with mApple-H2B; test: IncuCyte Cell Proliferation Assay; type: cell-based; details: 72 h
Experimental: IncuCyte® assay was used to measure the effect of disclosed compounds on cell proliferation. Fluorescent microscopy images of cells were taken immediately after compound treatment and 72 hours later. Image analysis software was used to obtain cell counts as a function of compound concentration. Kuramochi cells labeled with mApple-H2B were seeded on 384-well assay-ready plates. Plates were placed in an IncuCyte® (Sartorius) and scanned at 0 and 72 hours. IncuCyte® software was used to count the number of fluorescent nuclei in each well. The fold change in cell count from 0 to 72 hours in wells treated with increasing compounds concentrations (10 pts, ½ log dilution, 20 μM top concentration) was normalized to DMSO control wells. The normalized cell counts were fit with dose response curves and a […] was calculated.

Kuramochi cells = test: BrdU Cell Proliferation Assay; type: cell-based; details: read-out: BrdU - KURAMOCHI.1: IC50
Outline: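 Signal is 450 nm absorbance from a peroxidase anti-BrdU ELISA after a 1-hour BrdU label, background-subtracted and normalized to DMSO-treated wells. Kuramochi cells (2,000 per well) had been exposed to compound for 4 days. Dosing used a 10-point dose response in 3-fold steps.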

## C[C@@H](OCC1CCCCC1)C(NC(=O)[C@@H]1CN(C(=O)c2cncs2)CC12CN(C(=O)[C@H]1CC1(C)C)C2)c1nnco1 (stereo in doubt) [I-415, (S)—N-((1S,2R)-2-(cyclohexylmethoxy)-1-(1,3,4-oxadiazol-2-yl)propyl)-2-((S)-2,2-dimethylcyclopropane-1-carbonyl)-6-(thiazole-5-carbonyl)-2,6-diazaspiro[3.4]octane-8-carboxamide]
[1]
  pIC50: 5.30 to 6.30

## CNC(=O)[C@@H](NC(=O)[C@H]1CN(C(=O)c2cnn(Cc3ccccc3)c2)CC12CN(C(=O)OC(C)(C)C)C2)[C@@H](C)OCc1ccccc1 [I-3B]
[1]
  pIC50: < 4.70

## [2H]C([2H])([2H])NC(=O)C(NC(=O)[C@@H]1CN(C(=O)c2cncs2)CC12CN(C(=O)[C@H]1CC1(C)C)C2)c1cccc(N2CCOCC2)n1 (some centres unmarked) [I-18]
[1]
  pIC50: < 4.70

## Cc1ccc(CNC(=O)[C@@H]2CN(C(=O)c3cnn(Cc4ccncc4F)c3)CC23CN(C(=O)[C@H]2CC2(C)C)C3)nn1 [I-35]
[1]
  pIC50: < 4.70

## C[C@@H](OCC1(C(F)(F)F)CC1)[C@H](NC(=O)[C@@H]1CN(C(=O)c2cncs2)CC12CN(C(=O)[C@H]1CC1(C)C)C2)C(=O)N1CCCCC1 [I-285]
[1]
  pIC50: < 4.70

## C[C@@H](OCC1(C(F)(F)F)CC1)[C@H](NC(=O)[C@H]1CN(C(=O)c2cncs2)CC12CN(C(=O)[C@H]1CC1(C)C)C2)C(=O)N1CCC(F)(F)CC1 [I-291]
[1]
  pIC50: < 4.70

## C[C@@H](OCC1(C(F)(F)F)CC1)[C@H](NC(=O)[C@H]1CN(C(=O)c2cncs2)CC12CN(C(=O)[C@H]1CC1(C)C)C2)C(=O)N1CCCCC1 [I-292]
[1]
  pIC50: < 4.70

## C[C@@H](OCC1CCOCC1)[C@H](NC(=O)[C@@H]1CN(C(=O)c2cn[nH]c2)CC12CN(C(=O)[C@H]1CC1(C)C)C2)C(=O)N1CCC(F)(F)CC1 [I-297]
[1]
  pIC50: < 4.70

## C[C@@H](OCC1CCCCC1)[C@H](NC(=O)[C@@H]1CN(C(=O)c2cnn(Cc3ccccc3)c2)CC12CN(C(=O)[C@H]1CC1(C)C)C2)C(=O)N1CCC(c2ccncc2)CC1 [I-300]
[1]
  pIC50: ≥ 6.30

## C[C@@H](OCC1CCC(F)(F)CC1)[C@H](NC(=O)[C@@H]1CN(C(=O)c2cn[nH]c2)CC12CN(C(=O)[C@H]1CC1(C)C)C2)C(=O)N1CCOCC1 [I-301, (S)—N-((2S,3R)-3-((4,4-difluorocyclohexyl)methoxy)-1-morpholino-1-oxobutan-2-yl)-2-((S)-2,2-dimethylcyclopropane-1-carbonyl)-6-(1H-pyrazole-4-carbonyl)-2,6-diazaspiro[3.4]octane-8-carboxamide]
[1]
  pIC50: < 4.70

## C[C@@H](OCC1CCCCC1)[C@H](NC(=O)[C@@H]1CN(C(=O)c2cnn(Cc3ccccc3)c2)CC12CN(C(=O)[C@H]1CC1(C)C)C2)C(=O)N1CC[C@H]1CN [I-310]
[1]
  pIC50: 4.70 to 5.30

## C[C@@H](OCC1CCOCC1)[C@@H](COC1CCC(F)(F)CC1)NC(=O)[C@@H]1CN(C(=O)c2cncs2)CC12CN(C(=O)[C@H]1CC1(C)C)C2 [I-312]
[1]
  pIC50: 5.30 to 6.30

## C[C@@H](OCC1CCC(F)(F)CC1)[C@H](NC(=O)[C@@H]1CN(C(=O)c2cncs2)CC12CN(C(=O)[C@H]1CC1(C)C)C2)C(C)(C)O [I-313]
[1]
  pIC50: 5.30 to 6.30

## C[C@@H](OCC1CCC(F)(F)CC1)[C@@H](COC1CCOCC1)NC(=O)[C@@H]1CN(C(=O)c2cncs2)CC12CN(C(=O)[C@H]1CC1(C)C)C2 [I-314]
[1]
  pIC50: ≥ 6.30

## C[C@@H](OCC1CCC(F)(F)CC1)[C@@H](COC1CCC(F)(F)CC1)NC(=O)[C@@H]1CN(C(=O)c2cncs2)CC12CN(C(=O)[C@H]1CC1(C)C)C2 [I-315]
[1]
  pIC50: 5.30 to 6.30

## CC(O[C@H](C)[C@@H](COC1CCC(F)(F)CC1)NC(=O)[C@@H]1CN(C(=O)c2cncs2)CC12CN(C(=O)[C@H]1CC1(F)F)C2)C1CCC(F)(F)CC1 (some centres unmarked) [I-316]
[1]
  pIC50: < 4.70

## COC[C@H]1CCCN(C(=O)[C@@H](NC(=O)[C@@H]2CN(C(=O)c3cncs3)CC23CN(C(=O)[C@H]2CC2(C)C)C3)[C@@H](C)OCc2ccc(OC(F)(F)F)cc2)C1 [I-320]
[1]
  pIC50: 5.30 to 6.30

## C[C@@H](OCC1CCOCC1)[C@H](NC(=O)[C@@H]1CN(C(=O)c2cncs2)CC12CN(C(=O)[C@H]1CC1(C)C)C2)C(=O)N1CCC[C@H](COC(F)(F)F)C1 [I-327]
[1]
  pIC50: 4.70 to 5.30

## C[C@@H](OCC1CCCCC1)[C@@H](COC1CCNCC1)NC(=O)[C@@H]1CN(C(=O)c2cncs2)CC12CN(C(=O)[C@H]1CC1(C)C)C2 [I-329]
[1]
  pIC50: 5.30 to 6.30

## C[C@@H](OCC1CCCCC1)[C@@H](COC1CCOCC1)NC(=O)[C@@H]1CN(C(=O)c2cncs2)CC12CN(C(=O)[C@H]1CC1(C)C)C2 [I-331]
[1]
  pIC50: ≥ 6.30

## C[C@@H](OCC1CCCCC1)[C@@H](COC1CCCNC1)NC(=O)[C@@H]1CN(C(=O)c2cncs2)CC12CN(C(=O)[C@H]1CC1(C)C)C2 (some centres unmarked) [I-332]
[1]
  pIC50: 4.70 to 5.30

## C[C@@H](OCC1CCOCC1)[C@@H](COC1CCC(F)(F)CC1)NC(=O)[C@@H]1CN(C(=O)c2cncs2)CC12CN(C(=O)C(C)(C)C1CC1)C2 [I-333, (S)-2-(2-cyclopropyl-2-methylpropanoyl)-N-((2R,3R)-1-((4,4-difluorocyclohexyl)oxy)-3-((tetrahydro-2H-pyran-4-yl)methoxy)butan-2-yl)-6-(thiazole-5-carbonyl)-2,6-diazaspiro[3.4]octane-8-carboxamide]
[1]
  pIC50: 4.70 to 5.30

## C[C@@H](OCC12CCC(CC1)OC2)[C@H](NC(=O)[C@@H]1CN(C(=O)c2cncs2)CC12CN(C(=O)C(C)(C)C1CC1)C2)C(C)(C)O [I-334]
[1]
  pIC50: < 4.70

## C[C@@H](OCC1CCC(F)(F)CC1)[C@H](NC(=O)[C@@H]1CN(C(=O)c2cncs2)CC12CN(C(=O)[C@H]1CC1(C)C)C2)C(=O)N1CCC2(CC1)COC2 [I-335]
[1]
  pIC50: 5.30 to 6.30

## C[C@@H](OCC1CCC(F)(F)CC1)[C@H](NC(=O)[C@@H]1CN(C(=O)c2cncs2)CC12CN(C(=O)C(C)(C)C1CC1)C2)C(=O)N1CCC(O)CC1 [I-337]
[1]
  pIC50: 5.30 to 6.30

## CNC(=O)C(NC(=O)[C@@H]1CN(C(=O)c2cncs2)CC12CN(C(=O)C(C)(C)C1CC1)C2)c1cccc(C2CCOCC2)n1 (some centres unmarked) [I-338]
[1]
  pIC50: < 4.70

## CC(C)(O)C(NC(=O)[C@@H]1CN(C(=O)c2cncs2)CC12CN(C(=O)C(C)(C)C1CC1)C2)c1cccc(C2CCOCC2)n1 (some centres unmarked) [I-339]
[1]
  pIC50: < 4.70

## CN(C)C(=O)C(NC(=O)[C@@H]1CN(C(=O)c2cncs2)CC12CN(C(=O)C(C)(C)C1CC1)C2)c1cccc(C2CCOCC2)n1 (some centres unmarked) [I-340]
[1]
  pIC50: < 4.70

## Cc1nc(C)c(C(=O)N2C[C@@H](C(=O)N[C@H](C(=O)N3CCC4(CC3)COC4)[C@@H](C)OCC34CCC(CC3)OC4)C3(C2)CN(C(=O)[C@H]2CC2(C)C)C3)s1 [I-343]
[1]
  pIC50: < 4.70

## CNC(=O)[C@@H](NC(=O)[C@@H]1CN(C(=O)c2cncs2)CC12CN(CC(C)(C)C)C2)[C@@H](C)OCC12CCC(CC1)OC2 [I-347]
[1]
  pIC50: < 4.70

## CNC(=O)[C@@H](NC(=O)[C@@H]1CN(C(=O)c2cncs2)CC12CN(CC1COC1)C2)[C@@H](C)OCC12CCC(CC1)OC2 [I-348]
[1]
  pIC50: < 4.70

## CNC(=O)[C@@H](NC(=O)[C@@H]1CN(C(=O)c2cncs2)CC12CN(Cc1ccco1)C2)[C@@H](C)OCC12CCC(CC1)OC2 [I-349]
[1]
  pIC50: < 4.70

## CNC(=O)[C@@H](NC(=O)[C@@H]1CN(C(=O)c2cncs2)CC12CN(Cc1cnco1)C2)[C@@H](C)OCC12CCC(CC1)OC2 [I-350]
[1]
  pIC50: < 4.70

## CNC(=O)[C@@H](NC(=O)[C@@H]1CN(C(=O)c2cncs2)CC12CN(Cc1ccn[nH]1)C2)[C@@H](C)OCC12CCC(CC1)OC2 [I-351]
[1]
  pIC50: < 4.70

## CNC(=O)[C@@H](NC(=O)[C@@H]1CN(C(=O)c2cncs2)CC12CN(CC1CCCO1)C2)[C@@H](C)OCC1CCCCC1 (some centres unmarked) [I-352]
[1]
  pIC50: < 4.70

## C[C@@H](OCC1CCCCC1)[C@H](NC(=O)C1CN(C(=O)c2cnn(Cc3ccccc3)c2)CC12CN(C(=O)[C@H]1CC1(C)C)C2)C(=O)NCCC(=O)O (some centres unmarked) [I-353]
[1]
  pIC50: 4.70 to 5.30

## Cc1ccc(CNC(=O)[C@@H]2CN(C(=O)c3cnn(Cc4ccccc4)c3)CC23CN(C(=O)C(C)(C)C2CC2)C3)nn1 [I-387, (S)-6-(1-benzyl-1H-pyrazole-4-carbonyl)-2-(2-cyclopropyl-2-methylpropanoyl)-N-((6-methylpyridazin-3-yl)methyl)-2,6-diazaspiro[3.4]octane-8-carboxamide]
[1]
  pIC50: < 4.70

## CC1(C)C[C@@H]1C(=O)N1CC2(CN(C(=O)c3cnn(Cc4ccccc4)c3)C[C@H]2C(=O)NC[C@H]2CC[C@@H](C)CC2)C1 [I-388]
[1]
  pIC50: 5.30 to 6.30

## COC[C@H]1CCCN(C(=O)[C@@H](NC(=O)[C@@H]2CN(C(=O)c3cncs3)CC23CN(C(=O)C(C)(C)C2CC2)C3)[C@@H](C)OCC2CCCCC2)C1 [I-389]
[1]
  pIC50: 5.30 to 6.30

## COC[C@H]1CCCN(C(=O)[C@@H](NC(=O)[C@@H]2CN(C(=O)c3cncs3)CC23CN(C(=O)[C@H]2CC2(C)C)C3)[C@@H](C)OCC2CCC3(CCC3)CC2)C1 [I-390]
[1]
  pIC50: ≥ 6.30

## CNC(=O)C(NC(=O)[C@@H]1CN(C(=O)c2cnn(Cc3ccccc3)c2)CC12CN(C(=O)[C@H]1CC1(C)C)C2)c1cccc(C2CCCCC2)n1 (some centres unmarked) [I-391]
[1]
  pIC50: 5.30 to 6.30

## CC1(C)C[C@@H]1C(=O)N1CC2(CN(C(=O)c3cnn(Cc4ccccc4)c3)C[C@H]2C(=O)NCc2ccc(C(F)(F)F)nn2)C1 [I-392]
[1]
  pIC50: < 4.70

## CNC(=O)[C@@H](NC(=O)[C@@H]1CN(C(=O)c2cnn(Cc3ccccc3)c2)CC12CN(C(=O)[C@H]1CC1(C)C)C2)C(C)(C)OCc1ccccc1 [I-393]
[1]
  pIC50: 4.70 to 5.30

## COC[C@H]1CCCN(C(=O)[C@@H](NC(=O)[C@@H]2CN(C(=O)c3cncs3)CC23CN(S(=O)(=O)C(C)(C)C)C3)[C@@H](C)OCC2CCCCC2)C1 [I-447, (S)-2-(tert-butylsulfonyl)-N-((2S,3R)-3-(cyclohexylmethoxy)-1-((S)-3-(methoxymethyl)piperidin-1-yl)-1-oxobutan-2-yl)-6-(thiazole-5-carbonyl)-2,6-diazaspiro[3.4]octane-8-carboxamide]
Kuramochi cells
  pIC50: < 5.00
